Read-outs that look alike come from different tables or passages of the source.
How the values were obtained:
[1] = target: T1, HCV polymerase (NS5B570n-Con1) (Hepatitis C virus genotype 1b, UniProt Q9WMX2); experiment: HCV NS5B RNA polymerase activity assay; format: biochemical, HCV Con1 strain
T1 construct: contains a 21 amino acid deletion at the C-terminus relative to the full-length HCV polymerase; 6-histidine (N); made in house; host or cells: E. coli BL21(DE) pLysS, plasmid pET17b
Protocol: The enzymatic activity of HCV polymerase (NS5B570n-Con1) was measured as the incorporation of radiolabeled nucleotide monophosphates into acid insoluble RNA products. Unincorporated radiolabeled substrate was removed by filtration and scintillant was added to the washed and dried filter plate containing radiolabeled RNA product. The amount of RNA product generated by NS5B570-Con1 at the end of the reaction was directly proportional to the amount of light emitted by the scintillant.
The N-terminal 6-histidine tagged HCV polymerase, derived from HCV Con1 strain, genotype 1b (NS5B570n-Con1) contains a 21 amino acid deletion at the C-terminus relative to the full-length HCV polymerase and was purified from E. coli strain BL21(DE) pLysS. The construct, containing the coding sequence of HCV NS5B Con1 (GenBank accession number AJ242654) was inserted into the plasmid construct pET17b, downstream of a T7 promoter expression cassette and transformed into E. coli. A single colony was grown overnight as a starter culture and later used inoculate 10 L of LB media supplemented with 100 μg/mL ampicillin at 37° C. Protein expression was induced by the addition of 0.25 mM isopropyl-β-D-thiogalactopyranoside (IPTG) when optical density at […] of the culture was between 0.6 and 0.8 and cells were harvested after 16 to 18 h at 30° C. NS5B570n-Con1 was purified to homogeneity using a three-step protocol including subsequent column chromatography on Ni-NTA, SP-Sepharose HP and Superdex 75 resins.
Reaction mixtures were assembled in 96-well filter plates (cat #MADVN0B, Millipore Co.) and incubated for 2 h at 30° C. Reactions were stopped by addition of 10% final (v/v) trichloroacetic acid and incubated for 40 min at 4° C. […]
The amount of light emitted from the scintillant was converted to counts per minute (CPM) on a Topcount® plate reader (Perkin-Elmer, Energy Range: Low, Efficiency Mode Normal, Count Time: 1 min, Background Subtract: none, Cross talk reduction: Off).
Data was analyzed in Excel® (Microsoft) and ActivityBase® (Idbs®). […] All data was expressed as a percentage of the positive control. […]

in vitro = conditions: human
[2] = test system: genotype 1b HCV replicon in Huh7 cell line 2209-23; experiment: HCV replicon assay (Renilla luciferase reporter); format: cell-based; conditions: 2209-23 cells, three days incubation
HCV = conditions: cited from earlier work
[3] = test system: HCV replicon cells (2209-23); conditions: read-out: Cytotoxicity CC50; 2209-23 cells, WST-1

CC(C)(C)c1cc(-c2ccc[nH]c2=O)cc(C2CC2c2ccc(NS(C)(=O)=O)cc2)c1 (centres unmarked) [Compound I-1, N-(4-{2-[3-tert-Butyl-5-(2-oxo-1,2-dihydro-pyridin-3-yl)-phenyl]-cyclopropyl}-phenyl)-methanesulfonamide]
melting point: 162 to 164 °C
IC50 [1]: 21 nM

COc1c(C2CC2c2ccc(NS(C)(=O)=O)cc2)cc(-c2ccc[nH]c2=O)cc1C(C)(C)C (centres unmarked) [Compound I-2, N-(4-{2-[3-tert-Butyl-2-methoxy-5-(2-oxo-1,2-dihydro-pyridin-3-yl)-phenyl]-cyclopropyl}-phenyl)-methanesulfonamide]
CC50 (in vitro): 15000 nM
IC50 ([2]; Hepatitis C virus, Huh-7, 72 h): 109 nM

CC(C)(C)c1cc(-c2ccc[nH]c2=O)c(O)c(C2CC2c2ccc(NS(C)(=O)=O)cc2)c1 (centres unmarked) [Compound I-3, N-(4-{2-[5-tert-Butyl-2-hydroxy-3-(2-oxo-1,2-dihydro-pyridin-3-yl)-phenyl]-cyclopropyl}-phenyl)-methanesulfonamide]
melting point: 148 to 150 °C
IC50 [1]: 12 nM

NC(=O)c1ncn([C@@H]2O[C@H](CO)[C@@H](O)[C@H]2O)n1 [ribavirin, 1-((2R,3R,4S,5R)-3,4-Dihydroxy-5-hydroxymethyl-tetrahydro-furan-2-yl)-1H-[1,2,4]triazole-3-carboxylic acid amide]
toxicity (HCV; human, in vivo): exhibits significant toxicity and is known to induce anemia
patients with serum amino transferase levels reduced to normal (HCV; monotherapy): 40%

N-(6-{2-[3-tert-Butyl-6-hydroxy-2-methoxy-5-(2-oxo-1,2-dihydro-pyridin-3-yl)-phenyl]-cyclopropyl}-pyridin-3-yl)-methanesulfonamide [Compound I-4]
CC50 [3]: 32800 nM
IC50 ([1]; NS5B570n-Con1, genotype 1b, read-out: IC50 HCV Polymerase Assay): 8 nM
IC50 [2]: 78 nM

From patent US8158803B2, “Heterocyclic antiviral compounds” (Roche Palo Alto LLC, priority 2009, dated 2012)
